Measurements taken from ChEMBL document CHEMBL3112524, “Rigid spiroethers targeting the decoding center of the bacterial ribosome” (Bioorg Med Chem, 2014).
Values after ≈ are worked out from the molar mass of the structure shown. Active and inactive are the calls of the source. The calls are words filed in the database; no cut-off is given here.

Experiments:
[1] = Binding affinity to 2AP-labelled duplex RNA (unknown origin) by fluorescence spectrophotometric analysis
Bacterial 70S ribosome = test: Binding affinity to Escherichia coli ribosome assessed as inhibition of transcription-translation activity preincubated for 30 mins followed by substrate addition measured after 5 mins by luciferase assay
Pseudomonas aeruginosa = test: Antibacterial activity against Pseudomonas aeruginosa ATCC 27853 assessed as growth inhibition after 18 hrs by geometric microdilution method; format: functional
Escherichia coli [2] = test: Antibacterial activity against Escherichia coli ATCC 25922 assessed as growth inhibition after 18 hrs by geometric microdilution method; format: functional
Staphylococcus aureus = test: Antibacterial activity against Staphylococcus aureus ATCC 29213 assessed as growth inhibition after 18 hrs by geometric microdilution method; format: functional
Escherichia coli [3] = test: Antibacterial activity against kanamycin-resistant Escherichia coli K-12 JW 3596-1 harboring rfaC733 deletion mutant assessed as growth inhibition after 18 hrs by geometric microdilution method; format: functional; details: K-12 JW 3596-1, 18 h
Escherichia coli [4] = test: Antibacterial activity against kanamycin-resistant Escherichia coli K-12 JW 5503-1 harboring tolc732 deletion mutant assessed as growth inhibition after 18 hrs by geometric microdilution method; format: functional; details: K-12 JW 5503-1, 18 h
Escherichia coli [5] = test: Antibacterial activity against kanamycin-resistant Escherichia coli K-12 JW 0451-2 harboring acrB747 deletion mutant assessed as growth inhibition after 18 hrs by geometric microdilution method; format: functional; details: K-12 JW 0451-2, 18 h

N[C@@H]1C[C@H](N)[C@@]2(CC[C@@H](O)[C@@H](O)CO2)[C@H](O)[C@H]1O
EC50 [1]: 141 µM

N[C@@H]1C[C@H](N)[C@@]2(C[C@H](O)[C@H](O)CO2)[C@H](O)[C@H]1O
EC50 [1]: 6.5 µM

NCCCC[C@H](N)C(=O)N[C@@H]1C[C@H](N)[C@@]2(CC[C@@H](O)[C@@H](O)CO2)[C@H](O)[C@H]1O
EC50 [1]: 1.2 µM | IC50 (Bacterial 70S ribosome): > 600 µM

N[C@@H]1C[C@H](N)[C@@]2(CC[C@@H](CNC(=O)[C@@H](N)Cc3ccc(O)cc3)O2)[C@H](O)[C@H]1O
IC50 (Bacterial 70S ribosome): > 600 µM

N[C@@H]1C[C@H](N)[C@@]2(CC[C@@H](CNC(=O)[C@@H]3CCCN3)O2)[C@H](O)[C@H]1O
EC50 [1]: 0.68 µM | IC50 (Bacterial 70S ribosome): 156 µM

NCCCC[C@H](N)CN[C@@H]1C[C@H](N)[C@@]2(CC[C@@H](O)[C@@H](O)CO2)[C@H](O)[C@H]1O
EC50 [1]: 0.65 µM | MIC (Pseudomonas aeruginosa; ATCC 27853, 18 h): > 118 µg/mL | IC50 (Bacterial 70S ribosome): > 600 µM | MIC (Escherichia coli [2]; ATCC 25922, 18 h): 236 µg/mL (≈ 627 µM) | MIC (Staphylococcus aureus; ATCC 29213, 18 h): 14.7 µg/mL (≈ 39 µM) | MIC (Escherichia coli [3]): > 118 µg/mL | MIC (Escherichia coli [4]): > 118 µg/mL | MIC (Escherichia coli [5]): 118 µg/mL (≈ 313 µM)

N[C@@H]1C[C@H](N)[C@@]2(CC[C@@H](CNC(=O)[C@@H](N)Cc3c[nH]c4ccccc34)O2)[C@H](O)[C@H]1O
MIC (Pseudomonas aeruginosa; ATCC 27853, 18 h): 65 µg/mL (≈ 156 µM) | IC50 (Bacterial 70S ribosome): 149 µM | MIC (Escherichia coli [2]; ATCC 25922, 18 h): 98 µg/mL (≈ 235 µM) | MIC (Staphylococcus aureus; ATCC 29213, 18 h): 8.4 µg/mL (≈ 20.1 µM) | MIC (Escherichia coli [3]): > 131 µg/mL | MIC (Escherichia coli [4]): 131 µg/mL (≈ 314 µM) | MIC (Escherichia coli [5]): 32.5 µg/mL (≈ 77.8 µM)

NC[C@H]1O[C@H](O[C@H]2[C@H](O)[C@@H](O)[C@H](N)C[C@@H]2N)[C@H](N)[C@@H](O)[C@@H]1O [NEAMINE]
EC50 [1]: 9.5 µM | MIC (Pseudomonas aeruginosa; ATCC 27853, 18 h): 73 µg/mL (≈ 226 µM) | MIC (Escherichia coli [2]; ATCC 25922, 18 h): 14 µg/mL (≈ 43.4 µM) | MIC (Staphylococcus aureus; ATCC 29213, 18 h): 5 µg/mL (≈ 15.5 µM) | MIC (Escherichia coli [3]): 150 µg/mL (≈ 465 µM) | MIC (Escherichia coli [4]): 300 µg/mL (≈ 931 µM) | MIC (Escherichia coli [5]): 150 µg/mL (≈ 465 µM)

NCCCC[C@H](N)C(=O)NC[C@@H]1CC[C@@]2(O1)[C@H](O)[C@@H](O)[C@H](N)C[C@@H]2N
EC50 [1]: 1.4 µM | MIC (Pseudomonas aeruginosa; ATCC 27853, 18 h): > 112 µg/mL | IC50 (Bacterial 70S ribosome): 325 µM | MIC (Escherichia coli [2]; ATCC 25922, 18 h): > 112 µg/mL | MIC (Staphylococcus aureus; ATCC 29213, 18 h): 7.2 µg/mL (≈ 20 µM) | MIC (Escherichia coli [3]): 112 µg/mL (≈ 312 µM) | MIC (Escherichia coli [4]): > 112 µg/mL | MIC (Escherichia coli [5]): > 112 µg/mL

N[C@@H](Cc1ccc(O)cc1)C(=O)N[C@@H]1C[C@H](N)[C@@]2(C[C@H](O)[C@H](O)CO2)[C@H](O)[C@H]1O
IC50 (Bacterial 70S ribosome): > 600 µM

N[C@@H](Cc1ccc(O)cc1)C(=O)N[C@@H]1C[C@H](N)[C@@]2(CC[C@H](O)[C@H](O)CO2)[C@H](O)[C@H]1O
IC50 (Bacterial 70S ribosome): 450 µM

NCCCC[C@H](N)C(=O)N[C@@H]1C[C@H](N)[C@@]2(CC[C@H](O)[C@H](O)CO2)[C@H](O)[C@H]1O
EC50 [1]: 12 µM

N[C@@H](Cc1ccc(O)cc1)C(=O)N[C@@H]1C[C@H](N)[C@@]2(CC[C@@H](O)[C@@H](O)CO2)[C@H](O)[C@H]1O
IC50 (Bacterial 70S ribosome): > 600 µM

NCCCC[C@H](N)CN[C@@H]1C[C@H](N)[C@@]2(C[C@H](O)[C@H](O)CO2)[C@H](O)[C@H]1O
EC50 [1]: 0.15 µM | IC50 (Bacterial 70S ribosome): 540 µM

N[C@H](CN[C@@H]1C[C@H](N)[C@@]2(CC[C@@H](O)[C@@H](O)CO2)[C@H](O)[C@H]1O)Cc1ccc(O)cc1
IC50 (Bacterial 70S ribosome): > 600 µM

N=C(N)NCCC[C@H](N)C(=O)NC[C@@H]1CC[C@@]2(O1)[C@H](O)[C@@H](O)[C@H](N)C[C@@H]2N
EC50 [1]: 1.5 µM | IC50 (Bacterial 70S ribosome): 98 µM

N[C@@H]1C[C@H](N)[C@@]2(CC[C@H](O)[C@H](O)CO2)[C@H](O)[C@H]1O
EC50 [1]: 74 µM

NCC[C@H](O)C(=O)N[C@@H]1C[C@H](N)[C@@]2(CC[C@H](O)[C@H](O)CO2)[C@H](O)[C@H]1O
EC50 [1]: 6.9 µM

NCC[C@H](O)CN[C@@H]1C[C@H](N)[C@@]2(CC[C@H](O)[C@H](O)CO2)[C@H](O)[C@H]1O
EC50 [1]: 0.93 µM | IC50 (Bacterial 70S ribosome): > 600 µM

N[C@@H]1C[C@H](N)[C@@]2(CC[C@@H](CNC(=O)[C@@H](N)Cc3cnc[nH]3)O2)[C@H](O)[C@H]1O
EC50 [1]: 1.6 µM | IC50 (Bacterial 70S ribosome): 172 µM

N[C@H](CN[C@@H]1C[C@H](N)[C@@]2(CC[C@H](O)[C@H](O)CO2)[C@H](O)[C@H]1O)Cc1ccc(O)cc1
MIC (Pseudomonas aeruginosa): inactive | IC50 (Bacterial 70S ribosome): > 600 µM | MIC (Escherichia coli [2]): inactive | MIC (Staphylococcus aureus): inactive | MIC (Escherichia coli [3]): > 129 µg/mL | MIC (Escherichia coli [4]): > 129 µg/mL | MIC (Escherichia coli [5]): 129 µg/mL (≈ 313 µM)

NCC[C@H](O)C(=O)N[C@@H]1C[C@H](N)[C@@]2(C[C@H](O)[C@H](O)CO2)[C@H](O)[C@H]1O
EC50 [1]: 12.6 µM | IC50 (Bacterial 70S ribosome): > 600 µM

NCC[C@H](O)C(=O)N[C@@H]1C[C@H](N)[C@@]2(CC[C@@H](O)[C@@H](O)CO2)[C@H](O)[C@H]1O
EC50 [1]: 0.39 µM | IC50 (Bacterial 70S ribosome): > 600 µM

NCCCC[C@H](N)C(=O)N[C@@H]1C[C@H](N)[C@@]2(C[C@H](O)[C@H](O)CO2)[C@H](O)[C@H]1O
EC50 [1]: 0.89 µM | IC50 (Bacterial 70S ribosome): 350 µM

NCCCC[C@H](N)CN[C@@H]1C[C@H](N)[C@@]2(CC[C@H](O)[C@H](O)CO2)[C@H](O)[C@H]1O
EC50 [1]: 0.09 µM | MIC (Pseudomonas aeruginosa; ATCC 27853, 18 h): > 118 µg/mL | IC50 (Bacterial 70S ribosome): 100 µM | MIC (Escherichia coli [2]; ATCC 25922, 18 h): 236 µg/mL (≈ 627 µM) | MIC (Staphylococcus aureus; ATCC 29213, 18 h): 3.8 µg/mL (≈ 10.1 µM) | MIC (Escherichia coli [3]): > 118 µg/mL | MIC (Escherichia coli [4]): 118 µg/mL (≈ 313 µM) | MIC (Escherichia coli [5]): 118 µg/mL (≈ 313 µM)

NC[C@@H]1O[C@H](O[C@H]2[C@@H](O)[C@H](O[C@@H]3[C@@H](O)[C@H](N)C[C@H](N)[C@H]3O[C@H]3O[C@H](CO)[C@@H](O)[C@H](O)[C@H]3N)O[C@@H]2CO)[C@H](N)[C@@H](O)[C@@H]1O [PAROMOMYCIN]
MIC (Pseudomonas aeruginosa; ATCC 27853, 18 h): 113 µg/mL (≈ 184 µM) | MIC (Escherichia coli [2]; ATCC 25922, 18 h): 4 µg/mL (≈ 6.5 µM) | MIC (Staphylococcus aureus; ATCC 29213, 18 h): 4 µg/mL (≈ 6.5 µM) | MIC (Escherichia coli [3]): 113 µg/mL (≈ 184 µM) | MIC (Escherichia coli [4]): 113 µg/mL (≈ 184 µM) | MIC (Escherichia coli [5]): 113 µg/mL (≈ 184 µM)
